In patent US12319687B2, “Indole alkaloid compound in noni enzyme and preparation method and application thereof” (HAINAN NORMAL UNIVERSITY, priority 2020, dated 2025):

Experiment: Physical and chemical properties: solubility
Type: physicochemical
Conditions: in water, methanol, DMSO
Experimental: The physical and chemical properties, hydrogen spectrum and mass spectrometry detection data of each compound are as follows:
It is calculated by a HR-ESI-MS [m/z 225.1406, calculated value being 225.1465] that a molecular weight of the compound is 202, a molecular formula is C12H14N2O, and a degree of unsaturation is 7.
It is calculated by the HR-ESI-MS [m/z 225.1406, calculated value being 225.1465] that a molecular weight of the compound is 202, a molecular formula is C12H14N2O, and a degree of unsaturation is 7.

C[C@H]1N[C@@H](O)Cc2c1[nH]c1ccccc21 [Compound 2, Noni alkaloid D]
solubility: easily soluble in water, methanol, DMSO

C[C@H]1N[C@H](O)Cc2c1[nH]c1ccccc21 [Compound 1, Noni alkaloid C]
solubility: easily soluble in water, methanol, DMSO
